US20040231558A1, “Water-color ink” (priority 2001, published 2004)

Key:
Format in all cases: physicochemical
[1] = Evaluation of storage stability of ink (40° C. for 3 months, insoluble matter and clogging); conditions: recording liquid stored at 40° C. for 3 months; insoluble matter and clogging
Experimental: (§1) The prepared ink was filled in an ink cartridge for a piezo-type ink-jet printer EM-930C (manufactured by Seiko Epson). The printing was performed with this printer, and the light fastness was evaluated. Further, the storage stability of the ink was evaluated.
(C) Evaluation of Storage Stability of Ink:
After a recording liquid was stored at 40° C. for 3 months, it was observedwhether or not an insoluble matterwas precipitated, and whether or not clogging occurred after continuous recording with the foregoing printer for a long period of time.

[2] = Evaluation of light fastness-2 (OD value of printed portion after 400 hours xenon fadeometer); conditions: ink prepared as in Example 1 from the salt named in the row, OD value of printed portion after 400 hours xenon fadeometer
Experimental: as §1
(A)-2 Evaluation of Light Fastness-2
Printing density (OD value) was measured after irradiating a printed-portion with light for 400 hours using axenon fadeometer (manufactured by Suga Shikenki), and the light fastness was evaluated.

[3] = Evaluation of light fastness-1 (OD value of printed portion after 100 hours xenon fadeometer); conditions: ink prepared as in Example 1 from the salt named in the row; OD value of printed portion after 100 hours xenon fadeometer
Experimental: as §1
(A)-1 Evaluation of Light Fastness-1
Printing density (OD value) was measured after irradiating a printed portion with light for 100 hours using a xenon fadeometer (manufactured by Suga Shikenki) to evaluate the light fastness.

[4] = Evaluation of moisture resistance (image-recorded paper at 40° C. and humidity 85%, visual observation); conditions: image-recorded paper at 40° C. and humidity 85%, visually observed

Row | (C) storage stability [1] | (A)-2 light fastness-2 [2] | (A)-1 light fastness-1 [3] | (B) moisture resistance [4] | (A)-2 light fastness-2 ([2]; NH(CH2CH=CH2)3 salt form) | (A)-2 light fastness-2 ([2]; Na salt form) | SMILES
1 | Δ | ◯ | ⊚ | ⊚ |  |  | N#Cc1c(-c2ccccc2)c(N=Nc2cc(C(=O)O)ccc2C(=O)O)c(O)n(CCNc2nc(Cl)nc(NCCn3c(O)c(N=Nc4cc(C(=O)O)ccc4C(=O)O)c(-c4ccccc4)c(C#N)c3=O)n2)c1=O [Compound 261]
2 | ◯ | ⊚⊚ | ⊚ | ⊚ |  |  | CCc1c(N=Nc2cc(C(=O)O)ccc2C(=O)O)c(O)n(CCn2c(=O)c3cc4c(=O)n(CCn5c(O)c(N=Nc6cc(C(=O)O)ccc6C(=O)O)c(CC)c(C#N)c5=O)c(=O)c4cc3c2=O)c(=O)c1C#N [Compound 335]
3 | Δ | ◯ | ⊚ | ⊚ |  |  | CCc1c(N=Nc2cc(C(=O)O)ccc2C(=O)O)c(O)n(CCNc2nc(Cl)nc(NCCn3c(O)c(N=Nc4cc(C(=O)O)ccc4C(=O)O)c(C(F)(F)F)c(C#N)c3=O)n2)c(=O)c1C#N [Compound 250]
4 | ◯ and Δ | ⊚ and Δ | ⊚ | ◯ |  |  | Cc1c(N=Nc2cc(C(=O)O)ccc2C(=O)O)c(O)n(CCO)c(=O)c1C#N [compound 37]
5 | Δ | ◯ | ⊚ | ⊚ |  |  | Cc1c(N=Nc2c(C(=O)O)cccc2C(=O)O)c(O)n(CCNc2nc(Cl)nc(NCCn3c(O)c(N=Nc4c(C(=O)O)cccc4C(=O)O)c(C)c(C#N)c3=O)n2)c(=O)c1C#N [Compound 256]
6 | Δ | ◯ | ⊚ | ⊚ |  |  | Cc1c(N=Nc2cc(C(=O)O)ccc2C(=O)O)c(O)n(CCNc2nc(O)nc(NCCn3c(O)c(N=Nc4cc(C(=O)O)ccc4C(=O)O)c(C)c(C#N)c3=O)n2)c(=O)c1C#N [Compound 294]
7 | ◯ | ⊚⊚ | ⊚ | ⊚ |  |  | N#Cc1c(-c2ccccc2)c(N=Nc2cc(C(=O)O)ccc2C(=O)O)c(O)n(CCNC(=O)c2cc(C(=O)O)c(C(=O)NCCn3c(O)c(N=Nc4cc(C(=O)O)ccc4C(=O)O)c(-c4ccccc4)c(C#N)c3=O)cc2C(=O)O)c1=O [Compound 285]
8 | Δ | ⊚ | ⊚ | ⊚ |  |  | CCc1c(N=Nc2cc(C(=O)O)ccc2C(=O)O)c(O)n(CCNC(=O)c2ccc(C(=O)NCCn3c(O)c(N=Nc4cc(C(=O)O)ccc4C(=O)O)c(CC)c(C#N)c3=O)c(C(=O)NCCn3c(O)c(N=Nc4cc(C(=O)O)ccc4C(=O)O)c(CC)c(C#N)c3=O)c2)c(=O)c1C#N [Compound 308]
9 | ◯ | ⊚⊚ | ⊚ | ⊚ |  |  | CC(C)(C)c1c(N=Nc2cc(C(=O)O)ccc2C(=O)O)c(O)n(CCn2c(=O)c3cc4c(=O)n(CCn5c(O)c(N=Nc6cc(C(=O)O)ccc6C(=O)O)c(C(C)(C)C)c(C#N)c5=O)c(=O)c4cc3c2=O)c(=O)c1C#N [Compound 336]
10 | Δ | ⊚ | ⊚ | ⊚ |  |  | N#Cc1c(C(F)(F)F)c(N=Nc2cc(C(=O)O)ccc2C(=O)O)c(O)n(CCNc2nc(Cl)nc(NCCn3c(O)c(N=Nc4cc(C(=O)O)ccc4C(=O)O)c(C(F)(F)F)c(C#N)c3=O)n2)c1=O [Compound 248]
11 | ◯ |  | ⊚ | ◯ | ◯ | ⊚ | Cc1c(N=Nc2cc(C(=O)O)ccc2C(=O)O)c(O)n(CCC(=O)O)c(=O)c1C#N [compound 78]
12 | Δ | ◯ | ⊚ | ⊚ |  |  | Cc1c(N=Nc2cc(C(=O)O)ccc2C(=O)O)c(O)n(CCNc2nc(Cl)nc(NCCn3c(O)c(N=Nc4cc(C(=O)O)ccc4C(=O)O)c(C)c(C(N)=O)c3=O)n2)c(=O)c1C(N)=O [Compound 252]
13 | ◯ | ⊚ | ⊚ | ⊚ |  |  | N#Cc1c(-c2ccccc2)c(N=Nc2cc(C(=O)O)ccc2C(=O)O)c(O)n(CCCCCCNC(=O)c2cc(C(=O)O)c(C(=O)NCCCCCCn3c(O)c(N=Nc4cc(C(=O)O)ccc4C(=O)O)c(-c4ccccc4)c(C#N)c3=O)cc2C(=O)O)c1=O [Compound 287]
14 | ◯ | ◯ | ⊚ | ⊚ |  |  | Cc1c(N=Nc2cc(C(=O)O)ccc2C(=O)O)c(O)n(CCCCCCNC(=O)c2cc(C(=O)O)c(C(=O)NCCCCCCn3c(O)c(N=Nc4cc(C(=O)O)ccc4C(=O)O)c(C)c(C#N)c3=O)cc2C(=O)O)c(=O)c1C#N [Compound 281]
15 | Δ | ◯ | ⊚ | ⊚ |  |  | Cc1c(N=Nc2cc(C(=O)O)ccc2C(=O)O)c(O)n(CCCCCCNc2nc(NCCCCCCn3c(O)c(N=Nc4cc(C(=O)O)ccc4C(=O)O)c(C)c(C#N)c3=O)nc(NCCCCCCn3c(O)c(N=Nc4cc(C(=O)O)ccc4C(=O)O)c(C)c(C#N)c3=O)n2)c(=O)c1C#N [Compound 264]
16 | ◯ | ⊚ | ⊚ | ⊚ |  |  | CCc1c(N=Nc2cc(C(=O)O)ccc2C(=O)O)c(O)n(CCNc2nc(NCCn3c(O)c(N=Nc4cc(C(=O)O)ccc4C(=O)O)c(CC)c(C#N)c3=O)nc(NCCn3c(O)c(N=Nc4cc(C(=O)O)ccc4C(=O)O)c(CC)c(C#N)c3=O)n2)c(=O)c1C#N [Compound 273]
17 | ◯ and Δ | ⊚ and Δ and ◯ | ⊚ | Δ and ◯ |  |  | Cc1c(N=Nc2cc(C(=O)O)ccc2C(=O)O)c(O)n(CCS(=O)(=O)O)c(=O)c1C#N [compound 136]
18 | ◯ and Δ | ⊚ and Δ | ⊚ | Δ and ◯ |  |  | Cc1c(N=Nc2c(C(=O)O)cccc2C(=O)O)c(O)n(CCC(=O)O)c(=O)c1C#N [compound 95]
19 | ◯ | ⊚ | ⊚ | ⊚ |  |  | Cc1c(N=Nc2cc(C(=O)O)ccc2C(=O)O)c(O)n(CCNC(=O)c2cc(C(=O)O)c(C(=O)NCCn3c(O)c(N=Nc4cc(C(=O)O)ccc4C(=O)O)c(C)c(C#N)c3=O)cc2C(=O)O)c(=O)c1C#N [Compound No. 279]
20 | Δ | ⊚ | ⊚ | ⊚ |  |  | CCc1c(N=Nc2cc(C(=O)O)ccc2C(=O)O)c(O)n(CCNc2nc(Cl)nc(NCCn3c(O)c(N=Nc4cc(C(=O)O)ccc4C(=O)O)c(CC)c(C#N)c3=O)n2)c(=O)c1C#N [Compound 251]
21 | Δ | ⊚ | ⊚ | ⊚ |  |  | Cc1c(N=Nc2ccccc2C(=O)O)c(O)n(CCNC(=O)c2cc(C(=O)O)c(C(=O)NCCn3c(O)c(N=Nc4ccccc4C(=O)O)c(C)c(C#N)c3=O)cc2C(=O)O)c(=O)c1C#N [Compound 323]
22 | Δ | ◯ | ⊚ | ⊚ |  |  | Cc1c(N=Nc2cc(C(=O)O)ccc2C(=O)O)c(O)n(CCNc2nc(NCCn3c(O)c(N=Nc4cc(C(=O)O)ccc4C(=O)O)c(C)c(C#N)c3=O)nc(SCCC(=O)O)n2)c(=O)c1C#N [Compound 321]
23 | ◯ | ◯ | ⊚ | ⊚ |  |  | Cc1c(N=Nc2cc(C(=O)O)ccc2C(=O)O)c(O)n(CCCCCCNC(=O)c2cc(C(=O)NCCCCCCn3c(O)c(N=Nc4cc(C(=O)O)ccc4C(=O)O)c(C)c(C#N)c3=O)c(C(=O)O)cc2C(=O)O)c(=O)c1C#N [Compound 299]

Row | SMILES | (C) storage stability [1] | (A)-2 light fastness-2 [2] | (A)-1 light fastness-1 [3] | (B) moisture resistance [4] | (A)-2 light fastness-2 ([2]; NH(CH2CH=CH2)3 salt form) | (A)-2 light fastness-2 ([2]; Na salt form)
24 | Cc1c(N=Nc2cc(C(=O)O)ccc2C(=O)O)c(O)n(CCNc2nc(Cl)nc(NCCn3c(O)c(N=Nc4cc(C(=O)O)ccc4C(=O)O)c(C)c(C#N)c3=O)n2)c(=O)c1C#N [Compound No. 245] | ◯ | ◯ | ⊚ | ⊚ |  | 
25 | Cc1c(N=Nc2cc(C(=O)O)ccc2C(=O)O)c(O)n(CCCCCCNc2nc(Cl)nc(NCCCCCCn3c(O)c(N=Nc4cc(C(=O)O)ccc4C(=O)O)c(C)c(C#N)c3=O)n2)c(=O)c1C#N [Compound No. 246] | Δ | Δ | ⊚ | ⊚ |  | 
26 | Cc1c(N=Nc2cccc(C(=O)O)c2C(=O)O)c(O)n(CC(O)C(O)C(O)C(O)C(O)CO)c(=O)c1C#N (stereo not drawn) [compound 29] | ◯ and Δ | ◯ and Δ | ⊚ | ◯ |  | 
